Reference: patent US11046680B1, “Heteroaryl-substituted triazoles as APJ receptor agonists” (priority 2016, dated 2021)

Molecular target: human APJ receptor (Homo sapiens (Human), UniProt P35414)
Assay: biochemical
Type: biochemical
Conditions: [35S]GTPγS binding, CHO membranes expressing human APJ receptor; read-out: Activity hAPJ SPA EC50 IP
In short: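 Membranes of a stable CHO line carrying human APJ (pFLAG-CMV-3) were used in a GTPγS binding format; buffer GDP, MgCl2 and NaCl were optimized, and plates were read after 90 min at RT.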

Chain of human APJ receptor (P35414 whole entry): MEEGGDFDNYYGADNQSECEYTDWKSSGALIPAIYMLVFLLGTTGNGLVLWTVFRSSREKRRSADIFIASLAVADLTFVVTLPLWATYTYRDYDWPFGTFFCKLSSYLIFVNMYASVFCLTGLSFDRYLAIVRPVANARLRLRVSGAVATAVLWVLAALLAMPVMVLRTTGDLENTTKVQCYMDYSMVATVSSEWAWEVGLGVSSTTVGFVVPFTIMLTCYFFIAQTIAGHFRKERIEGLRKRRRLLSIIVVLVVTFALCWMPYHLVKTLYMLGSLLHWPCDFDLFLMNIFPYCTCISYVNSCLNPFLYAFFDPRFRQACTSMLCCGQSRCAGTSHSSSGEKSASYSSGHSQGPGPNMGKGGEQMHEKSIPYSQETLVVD

Molecule | EC50
COc1ccc([C@@H](OC)[C@H](C)S(=O)(=O)Nc2nnc(-c3ccn(C)n3)n2-c2c(OC)ncnc2OC)nc1 [Example 455.0, (1R,2S)-N-(4-(4,6-dimethoxy-5-pyrimidinyl)-5-(1-methyl-1H-pyrazol-3-yl)-4H-1,2,4-triazol-3-yl)-1-methoxy-1-(5-methoxy-2-pyridinyl)-2-propanesulfonamide] | 5.7 nM
COc1cccc(OC)c1-n1c(NS(=O)(=O)[C@@H](C)[C@H](OC)c2ncc(C)cn2)nnc1-c1cscn1 [Example 342.0, (1R,2S)-N-(4-(2,6-dimethoxyphenyl)-5-(1,3-thiazol-4-yl)-4H-1,2,4-triazol-3-yl)-1-methoxy-1-(5-methyl-2-pyrimidinyl)-2-propanesulfonamide] | 0.5 nM
COc1cccc(OC)c1-n1c(NS(=O)(=O)[C@@H](C)[C@H](OC)c2ncc(C)cn2)nnc1-c1n[nH]c2ccccc12 [Example 411.0] | 58 nM
COc1cccc(OC)c1-n1c(NS(=O)(=O)[C@@H](C)[C@H](OC)c2ncc(C)cn2)nnc1-c1ccc(C)s1 [Example 332.0, (1R,2S)-N-(4-(2,6-dimethoxyphenyl)-5-(5-methyl-2-thiophenyl)-4H-1,2,4-triazol-3-yl)-1-methoxy-1-(5-methyl-2-pyrimidinyl)-2-propanesulfonamide] | 0.37 nM
COc1ncnc(OC)c1-n1c(NS(=O)(=O)[C@@H](C)[C@H](C)c2ncc(Cl)cn2)nnc1-c1nn(C)c2ccc(C)cc12 [Example 433.0, (2S,3R)-3-(5-chloropyrimidin-2-yl)-N-(4-(4,6-dimethoxypyrimidin-5-yl)-5-(1,5-dimethyl-1H-indazol-3-yl)-4H-1,2,4-triazol-3-yl)butane-2-sulfonamide] | 0.84 nM
(2S)-N-(4-(2,6-dimethoxyphenyl)-5-(2-pyrazinyl)-4H-1,2,4-triazol-3-yl)-1-(5-fluoro-2-pyrimidinyl)-2-propanesulfonamide and (2R)-N-(4-(2,6-dimethoxyphenyl)-5-(2-pyrazinyl)-4H-1,2,4-triazol-3-yl)-1-(5-fluoro-2-pyrimidinyl)-2-propanesulfonamide [Example 182.0] | 84 nM
COc1cccc(OC)c1-n1c(NS(=O)(=O)CCc2ccc(Cl)cc2)nnc1-c1cccs1 [Example 311.0, 2-(4-Chlorophenyl)-N-(4-(2,6-dimethoxyphenyl)-5-(thiophen-2-yl)-4H-1,2,4-triazol-3-yl)ethanesulfonamide] | 3.8 nM
(R)-N-(4-(2,6-dimethoxyphenyl)-5-(1-methyl-1H-pyrazol-4-yl)-4H-1,2,4-triazol-3-yl)-1-(5-fluoropyrimidin-2-yl)propane-2-sulfonamide and (R)-N-(4-(2,6-dimethoxyphenyl)-5-(1-methyl-1H-pyrazol-4-yl)-4H-1,2,4-triazol-3-yl)-1-(5-fluoropyrimidin-2-yl)propane-2-sulfonamide [Example 40.0] | 5.2 nM
COc1cccc(OC)c1-n1c(NS(=O)(=O)[C@@H](C)[C@H](O)c2cnc(C)cn2)nnc1-c1cc(C)[nH]n1 [Example 347.0, (1R,2S)-N-(4-(2,6-Dimethoxyphenyl)-5-(5-methyl-1H-pyrazol-3-yl)-4H-1,2,4-triazol-3-yl)-1-hydroxy-1-(5-methyl-2-pyrazinyl)-2-propanesulfonamide] | 3.8 nM
COCC(COC)n1c(NS(=O)(=O)[C@@H](C)[C@H](C)c2ncc(Cl)cn2)nnc1-c1nn(C)c2ccccc12 [Example 449.0, (2S,3R)-3-(5-chloropyrimidin-2-yl)-N-(4-(1,3-dimethoxypropan-2-yl)-5-(1-methyl-1H-indazol-3-yl)-4H-1,2,4-triazol-3-yl)butane-2-sulfonamide] | 13 nM
CCn1ccc(-c2nnc(NS(=O)(=O)[C@@H](C)[C@H](OC)c3ncc(C)cn3)n2-c2c(OC)cccc2OC)n1 [Example 387.0, (1R,2S)-N-(4-(2,6-Dimethoxyphenyl)-5-(1-ethyl-1H-pyrazol-3-yl)-4H-1,2,4-triazol-3-yl)-1-methoxy-1-(5-methylpyrimidin-2-yl)propane-2-sulfonamide] | 0.55 nM
